Reference: ChEMBL document CHEMBL4602617, “Discovery and optimization of heteroaryl piperazines as potent and selective PI3Kδ inhibitors” (Bioorg Med Chem Lett, 2020)

How the values were obtained:
[1] = target: Tyrosine-protein kinase Srms (Homo sapiens, UniProt Q9H3Y6); assay: Inhibition of recombinant full length human GST-tagged SRM expressed in baculovirus expression system using tyrosine-1 peptide as substrate incubated for 60 mins in presence of ATP by Z'-LYTE assay
[2] = target: Casein kinase I isoform gamma-2 (Homo sapiens, UniProt P78368); assay: Inhibition of recombinant human full-length His-tagged CSNK1G2 expressed in baculovirus expression system using FRET-labeled Ser/Thr 05 peptide as substrate measured after 1 hr in presence of ATP by Z'-lyte assay
Sequence of Casein kinase I isoform gamma-2 (P78368 whole entry, canonical isoform): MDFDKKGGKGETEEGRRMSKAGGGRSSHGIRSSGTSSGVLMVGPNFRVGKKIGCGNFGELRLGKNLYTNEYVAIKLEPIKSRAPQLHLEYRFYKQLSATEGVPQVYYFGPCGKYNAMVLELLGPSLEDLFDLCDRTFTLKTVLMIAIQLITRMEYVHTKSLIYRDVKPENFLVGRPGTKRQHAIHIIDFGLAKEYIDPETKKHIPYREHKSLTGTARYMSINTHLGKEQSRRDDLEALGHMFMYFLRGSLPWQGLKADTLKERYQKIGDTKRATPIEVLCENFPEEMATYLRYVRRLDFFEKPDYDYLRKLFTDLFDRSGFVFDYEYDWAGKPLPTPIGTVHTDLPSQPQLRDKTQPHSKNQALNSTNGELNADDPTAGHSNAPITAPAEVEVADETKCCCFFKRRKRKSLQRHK

[3] = target: Progesterone receptor (Homo sapiens) (UniProt P06401); assay: Inhibition of human progesterone B receptor at 10 uM relative to control
[4] = target: Insulin receptor-related protein (Homo sapiens, UniProt P14616); assay: Inhibition of recombinant human GST-tagged INSRR cytoplasmic domain expressed in baculovirus expression system using tyrosine-1 peptide as substrate incubated for 60 mins in presence of ATP by Z'-LYTE assay
Sequence of Insulin receptor-related protein (P14616 27-742 limits assumed): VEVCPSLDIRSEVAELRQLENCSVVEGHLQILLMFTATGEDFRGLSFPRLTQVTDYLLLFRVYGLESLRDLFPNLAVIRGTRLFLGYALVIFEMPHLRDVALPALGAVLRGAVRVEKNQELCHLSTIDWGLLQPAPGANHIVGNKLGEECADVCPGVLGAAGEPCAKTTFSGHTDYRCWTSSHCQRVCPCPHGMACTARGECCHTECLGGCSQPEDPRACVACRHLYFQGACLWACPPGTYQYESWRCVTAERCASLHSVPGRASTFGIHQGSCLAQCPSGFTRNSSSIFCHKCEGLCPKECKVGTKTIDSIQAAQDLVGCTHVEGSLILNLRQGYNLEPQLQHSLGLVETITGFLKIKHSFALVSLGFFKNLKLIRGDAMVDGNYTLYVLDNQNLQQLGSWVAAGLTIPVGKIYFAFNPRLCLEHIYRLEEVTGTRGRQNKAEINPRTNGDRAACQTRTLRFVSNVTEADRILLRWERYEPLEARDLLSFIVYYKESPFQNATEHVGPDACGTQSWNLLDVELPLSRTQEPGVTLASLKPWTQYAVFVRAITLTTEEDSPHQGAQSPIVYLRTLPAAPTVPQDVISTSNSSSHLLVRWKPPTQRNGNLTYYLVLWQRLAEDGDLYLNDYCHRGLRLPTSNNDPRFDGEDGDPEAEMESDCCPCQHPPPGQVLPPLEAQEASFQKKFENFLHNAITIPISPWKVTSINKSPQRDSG
Sequence of Insulin receptor-related protein (P14616 747-1297 limits assumed): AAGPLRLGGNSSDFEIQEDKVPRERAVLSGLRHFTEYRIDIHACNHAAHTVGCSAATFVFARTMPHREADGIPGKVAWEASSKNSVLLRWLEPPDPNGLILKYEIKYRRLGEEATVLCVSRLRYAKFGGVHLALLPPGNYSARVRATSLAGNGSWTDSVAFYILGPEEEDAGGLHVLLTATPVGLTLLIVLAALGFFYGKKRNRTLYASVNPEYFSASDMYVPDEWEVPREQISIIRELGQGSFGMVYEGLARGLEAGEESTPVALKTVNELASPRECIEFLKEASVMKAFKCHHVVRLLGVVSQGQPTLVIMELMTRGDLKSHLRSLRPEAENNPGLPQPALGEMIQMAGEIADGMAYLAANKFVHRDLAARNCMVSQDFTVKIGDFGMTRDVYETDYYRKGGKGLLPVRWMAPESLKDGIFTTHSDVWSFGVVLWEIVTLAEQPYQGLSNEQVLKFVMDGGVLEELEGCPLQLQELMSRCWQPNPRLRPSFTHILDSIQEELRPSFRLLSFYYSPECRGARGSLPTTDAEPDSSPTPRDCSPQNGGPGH

[5] = target: Muscarinic acetylcholine receptor M2 (Homo sapiens) (UniProt P08172); assay: Displacement of [3H]N-Methylscopolamine from full length human recombinant Muscarinic M2 receptor expressed in CHOK1 cells at 10 uM measured after 120 mins by radiometric scintillation analysis relative to control; assay type: cell-based; settings: CHO-K1
[6] = target: Vasoactive intestinal polypeptide receptor 1 (Homo sapiens) (UniProt P32241); assay: Displacement of [125I]VIP from human HT-29 cells derived VIP1 at 10 uM after 60 mins by radiometric scintillation analysis relative to control; assay type: cell-based
[7] = target: MAP kinase-activated protein kinase 5 (Homo sapiens, UniProt Q8IW41); assay: Inhibition of recombinant full length human His-tagged PRAK expressed in baculovirus expression system using serine/threonine-4 peptide as substrate incubated for 60 mins in presence of ATP by Z'-LYTE assay
[8] = target: Cyclin-dependent kinase 5/CDK5 activator 1 (Homo sapiens, UniProt Q00535); assay: Inhibition of recombinant full length human GST/His-tagged CDK5/p25 expressed in baculovirus expression system using serine/threonine-12 peptide as substrate incubated for 60 mins in presence of ATP by Z'-LYTE assay
[9] = target: Alpha-2A adrenergic receptor (Homo sapiens) (UniProt P08913); assay: Displacement of [3H]rauwolscine from full-length recombinant human alpha2A receptor expressed in CHOK1 cells at 10 uM measured after 60 mins by scintillation counting method relative to control; assay type: cell-based; settings: CHO-K1
[10] = target: Tyrosine-protein kinase Lyn (Homo sapiens, UniProt P07948); assay: Inhibition of recombinant full length human GST-tagged LYN-A expressed in insect cells using tyrosine-2 peptide as substrate incubated for 60 mins in presence of ATP by Z'-LYTE assay
Aurora kinase B = Aurora kinase B (Homo sapiens, UniProt Q96GD4); assay: Inhibition of recombinant full length His-tagged human AURKB expressed in baculovirus expression system using Ser/Thr-01 peptide as substrate incubated for 60 mins in presence of ATP by Z'-LYTE assay
[11] = target: cGMP-dependent protein kinase 1 (Homo sapiens, UniProt Q13976); assay: Inhibition of recombinant full length human GST-tagged PRKG1 expressed in baculovirus expression system using serine/threonine-01 peptide as substrate incubated for 60 mins in presence of ATP by Z'-LYTE assay
Caspase-3 (Homo sapiens) = Caspase-3 (Homo sapiens) (UniProt P42574); assay: Inhibition of recombinant full-length human caspase 3 expressed in Escherichia coli at 10 uM using Ac-DEVD-AMC as substrate after 60 mins by spectrophotometric analysis relative to control
Sequence of Caspase-3 (Homo sapiens) (P42574 29-175 limits assumed): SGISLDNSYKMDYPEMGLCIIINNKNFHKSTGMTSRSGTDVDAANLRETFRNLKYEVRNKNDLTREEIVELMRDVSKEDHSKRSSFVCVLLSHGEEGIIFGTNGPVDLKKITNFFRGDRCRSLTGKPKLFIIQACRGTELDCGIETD
Sequence of Caspase-3 (Homo sapiens) (P42574 176-277 limits assumed): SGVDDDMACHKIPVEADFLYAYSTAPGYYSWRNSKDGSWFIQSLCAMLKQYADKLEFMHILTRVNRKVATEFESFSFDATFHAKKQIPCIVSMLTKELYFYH

[12] = target: Type-1 angiotensin II receptor (Homo sapiens) (UniProt P30556); assay: Displacement of [125I][Sar1,Ile8]-AT-II from full length human recombinant AT1 receptor expressed in CHOK1 cells at 10 uM measured after 120 mins by radiometric scintillation analysis relative to control; assay type: cell-based; settings: CHO-K1
Sequence of Type-1 angiotensin II receptor (Homo sapiens) (P30556 whole entry): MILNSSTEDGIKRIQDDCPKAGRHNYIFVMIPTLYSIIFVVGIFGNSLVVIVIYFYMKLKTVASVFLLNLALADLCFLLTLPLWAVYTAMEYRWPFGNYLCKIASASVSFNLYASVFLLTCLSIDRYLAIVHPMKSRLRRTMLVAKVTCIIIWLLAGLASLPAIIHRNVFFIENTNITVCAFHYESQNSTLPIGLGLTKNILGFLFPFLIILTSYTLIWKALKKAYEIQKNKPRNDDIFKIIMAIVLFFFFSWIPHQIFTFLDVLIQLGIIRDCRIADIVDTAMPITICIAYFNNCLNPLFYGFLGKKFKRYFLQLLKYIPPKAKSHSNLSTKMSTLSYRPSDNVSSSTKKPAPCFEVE

[13] = target: G protein-coupled receptor kinase 4 (Homo sapiens, UniProt P32298); assay: Inhibition of recombinant full length human GST-tagged GRK4 expressed in baculovirus expression system using serine/threonine-16 peptide as substrate incubated for 60 mins in presence of ATP by Z'-LYTE assay
[14] = target: Serine/threonine-protein kinase Nek1 (Homo sapiens, UniProt Q96PY6); assay: Inhibition of recombinant human GST-tagged NEK1 catalytic domain (1 to 505 residues) expressed in baculovirus expression system using serine/threonine-7 peptide as substrate incubated for 60 mins in presence of ATP by Z'-LYTE assay
Sequence of Serine/threonine-protein kinase Nek1 (Q96PY6 whole entry, the tested form may be a part): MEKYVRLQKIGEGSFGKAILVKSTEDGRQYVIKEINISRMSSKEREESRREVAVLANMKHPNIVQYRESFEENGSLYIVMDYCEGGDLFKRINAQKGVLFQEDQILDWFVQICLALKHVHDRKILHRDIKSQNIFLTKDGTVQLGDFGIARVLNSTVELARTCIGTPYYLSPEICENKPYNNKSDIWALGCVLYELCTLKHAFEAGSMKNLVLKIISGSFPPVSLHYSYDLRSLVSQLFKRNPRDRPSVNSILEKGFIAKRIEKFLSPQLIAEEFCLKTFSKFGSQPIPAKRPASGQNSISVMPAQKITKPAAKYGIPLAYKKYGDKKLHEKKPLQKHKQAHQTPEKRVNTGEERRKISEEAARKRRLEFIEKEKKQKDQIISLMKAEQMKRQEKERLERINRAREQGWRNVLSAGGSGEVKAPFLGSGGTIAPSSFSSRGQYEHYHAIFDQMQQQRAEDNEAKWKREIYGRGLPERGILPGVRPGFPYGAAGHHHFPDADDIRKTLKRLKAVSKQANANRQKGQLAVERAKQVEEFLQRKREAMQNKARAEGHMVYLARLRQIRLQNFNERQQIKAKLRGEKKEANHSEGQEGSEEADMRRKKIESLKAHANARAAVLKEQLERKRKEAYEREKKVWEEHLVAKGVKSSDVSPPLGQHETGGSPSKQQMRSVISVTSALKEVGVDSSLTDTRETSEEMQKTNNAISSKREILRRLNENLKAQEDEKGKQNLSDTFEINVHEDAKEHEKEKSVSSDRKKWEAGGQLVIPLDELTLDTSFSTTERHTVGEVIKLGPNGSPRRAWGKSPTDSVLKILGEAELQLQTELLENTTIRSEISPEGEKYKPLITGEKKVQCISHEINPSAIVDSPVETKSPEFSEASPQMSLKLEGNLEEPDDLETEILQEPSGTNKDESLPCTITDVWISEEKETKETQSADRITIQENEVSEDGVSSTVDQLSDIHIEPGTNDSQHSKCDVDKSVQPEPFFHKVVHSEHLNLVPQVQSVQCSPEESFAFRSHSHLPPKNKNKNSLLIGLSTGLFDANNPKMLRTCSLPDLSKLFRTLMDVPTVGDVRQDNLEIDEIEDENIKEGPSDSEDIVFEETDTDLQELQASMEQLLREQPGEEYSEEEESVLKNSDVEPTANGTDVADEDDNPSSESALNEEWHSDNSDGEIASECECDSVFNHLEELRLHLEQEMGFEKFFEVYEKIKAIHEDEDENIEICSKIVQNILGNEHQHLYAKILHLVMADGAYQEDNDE

Activin receptor type-1B = Activin receptor type-1B (Homo sapiens, UniProt P36896); assay: Inhibition of recombinant GST-tagged human ALK4 (150 to 505 residues) expressed in baculovirus expression system using Ser/Thr-16 peptide as substrate incubated for 60 mins in presence of ATP by Z'-LYTE assay
[15] = target: Protein kinase C beta type (Homo sapiens, UniProt P05771); assay: Inhibition of recombinant full length human GST-tagged PKCbeta2 expressed in insect expression system using serine/threonine-7 peptide as substrate incubated for 60 mins in presence of ATP by Z'-LYTE assay
[16] = target: Epidermal growth factor receptor (Homo sapiens, UniProt P00533, L858R); assay: Inhibition of human recombinant GST-tagged EGFR L858R mutant expressed in baculovirus expression system using tyrosine 4 peptide as substrate after 60 mins in presence of ATP FRET based Z'-LYTE assay
Sequence of Epidermal growth factor receptor (P00533 25-1210 L858R limits assumed): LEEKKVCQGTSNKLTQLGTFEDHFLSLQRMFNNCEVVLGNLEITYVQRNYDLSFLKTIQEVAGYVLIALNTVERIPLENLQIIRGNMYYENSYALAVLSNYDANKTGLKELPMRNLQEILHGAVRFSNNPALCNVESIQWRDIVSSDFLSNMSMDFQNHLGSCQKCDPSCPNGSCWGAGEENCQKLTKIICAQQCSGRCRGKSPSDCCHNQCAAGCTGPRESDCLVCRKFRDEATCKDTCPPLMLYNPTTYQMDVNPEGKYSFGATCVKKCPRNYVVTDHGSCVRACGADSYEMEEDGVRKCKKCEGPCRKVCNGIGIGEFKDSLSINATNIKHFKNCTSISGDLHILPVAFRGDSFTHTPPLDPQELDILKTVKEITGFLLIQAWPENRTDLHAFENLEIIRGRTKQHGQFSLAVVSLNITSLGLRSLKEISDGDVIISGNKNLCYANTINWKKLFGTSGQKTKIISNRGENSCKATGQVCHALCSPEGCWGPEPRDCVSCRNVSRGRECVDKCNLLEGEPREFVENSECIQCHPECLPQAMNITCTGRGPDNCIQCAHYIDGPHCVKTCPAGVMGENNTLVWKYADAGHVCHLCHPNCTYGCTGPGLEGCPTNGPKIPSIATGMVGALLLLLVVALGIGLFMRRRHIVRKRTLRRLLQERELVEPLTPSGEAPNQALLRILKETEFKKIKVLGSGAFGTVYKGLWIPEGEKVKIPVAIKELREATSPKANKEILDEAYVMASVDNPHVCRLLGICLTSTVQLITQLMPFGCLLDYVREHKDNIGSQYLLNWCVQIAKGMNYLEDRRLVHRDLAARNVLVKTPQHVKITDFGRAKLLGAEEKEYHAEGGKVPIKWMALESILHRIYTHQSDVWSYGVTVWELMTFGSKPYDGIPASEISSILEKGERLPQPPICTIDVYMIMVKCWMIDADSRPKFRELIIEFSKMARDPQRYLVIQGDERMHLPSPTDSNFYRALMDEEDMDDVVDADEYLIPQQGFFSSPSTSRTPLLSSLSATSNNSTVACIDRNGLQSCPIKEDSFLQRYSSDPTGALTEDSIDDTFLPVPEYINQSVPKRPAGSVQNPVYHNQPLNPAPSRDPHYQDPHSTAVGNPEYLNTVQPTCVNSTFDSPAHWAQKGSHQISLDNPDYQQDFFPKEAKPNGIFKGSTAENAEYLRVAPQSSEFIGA

Caspase-8 (Homo sapiens) = Caspase-8 (Homo sapiens) (UniProt Q14790); assay: Inhibition of recombinant human caspase 8 (217 to end residues) expressed in Escherichia coli at 10 uM using Ac-IETD-AMC as substrate after 60 mins by spectrophotometric analysis relative to control
Sequence of Caspase-8 (Homo sapiens) (Q14790 217-374 limits assumed): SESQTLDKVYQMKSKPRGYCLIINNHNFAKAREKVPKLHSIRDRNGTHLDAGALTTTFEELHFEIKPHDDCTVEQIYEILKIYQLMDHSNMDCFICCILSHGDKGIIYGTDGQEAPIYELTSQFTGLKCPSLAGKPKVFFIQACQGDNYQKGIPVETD
Sequence of Caspase-8 (Homo sapiens) (Q14790 385-479 limits assumed): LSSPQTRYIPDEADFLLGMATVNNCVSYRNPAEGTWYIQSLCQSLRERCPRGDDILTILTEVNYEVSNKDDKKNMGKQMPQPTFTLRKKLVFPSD

[17] = target: Serine/threonine-protein kinase PLK2 (Homo sapiens, UniProt Q9NYY3); assay: Inhibition of recombinant full length human GST-tagged PLK2 expressed in baculovirus expression system using serine/threonine-16 peptide as substrate incubated for 60 mins in presence of ATP by Z'-LYTE assay
[18] = target: Homeodomain-interacting protein kinase 4 (Homo sapiens, UniProt Q8NE63); assay: Inhibition of recombinant full length human N-terminal GST-tagged HIPK4 expressed in baculovirus expression system using serine/threonine-18 peptide as substrate incubated for 60 mins in presence of ATP by Z'-LYTE assay
AMPK alpha2/beta1/gamma1 = AMPK alpha2/beta1/gamma1 (Homo sapiens, UniProt P54619+P54646+Q9Y478); assay: Inhibition of recombinant full length GST/His-tagged human AMPK alpha2/beta1/gamma1 expressed in baculovirus expression system using Ser/Thr-23 peptide as substrate incubated for 60 mins in presence of ATP by Z'-LYTE assay
[19] = target: Sodium-dependent dopamine transporter (Homo sapiens) (UniProt Q01959); assay: Displacement of [125I]RTI-55 from full length recombinant human dopamine transporter expressed in CHO-S cells at 10 uM after 3 hrs by radiometric scintillation analysis relative to control; assay type: cell-based
Cytochrome P450 2D6 = Cytochrome P450 2D6 (Homo sapiens, UniProt P10635); assay: Inhibition of CYP2D6 (unknown origin)

SMILES: C[C@@H]1C[C@H]1C(=O)N1CCN(c2cnc(C#N)c(-c3cnn(C)c3)n2)C[C@H]1C
- IC50 [1]: > 100 µM
- IC50 [2]: > 100 µM
- inhibition [3]: 0%
- IC50 [4]: > 100 µM
- inhibition [5]: 1%
- inhibition [6]: 1%
- IC50 [7]: > 100 µM
- IC50 [8]: > 100 µM
- inhibition [9]: 2%
- IC50 [10]: > 100 µM
- IC50 (Aurora kinase B): > 100 µM
- IC50 [11]: > 100 µM
- inhibition (Caspase-3 (Homo sapiens)): 0%
- inhibition [12]: -4%
- IC50 [13]: 34.7 µM
- IC50 [14]: > 100 µM
- IC50 (Activin receptor type-1B): > 100 µM
- IC50 [15]: > 100 µM
- IC50 [16]: > 100 µM
- inhibition (Caspase-8 (Homo sapiens)): 2%
- IC50 [17]: > 100 µM
- IC50 [18]: > 100 µM
- IC50 (AMPK alpha2/beta1/gamma1): > 100 µM
- inhibition [19]: 1%
- IC50 (Cytochrome P450 2D6): > 50 µM
